Measurements: patent US7968526B2, “Antisense oligonucleotides directed to ribonucleotide reductase R2 and uses thereof in the treatment of cancer” (Lorus Therapeutics Inc., priority 2003, dated 2011)
“Also recorded” adds a separate entry of the source.

What was measured:
[1] = test system: MDA-MB-231 human breast cancer cells; experiment: MDA-MB-231 breast tumour xenograft in CD-1 nude mice, combination with taxol or doxorubicin (1.7); format: in vivo, human cells in mice; conditions: MDA-MB-231 (breast), CD-1; SEQ ID NO:1 10 mg/kg i.v. every other day; Taxol 10 mg/kg i.v. weekly; doxorubicin 5 mg/kg i.v. weekly
Method: (§1) After 52 days the mice were sacrificed and the tumours weighed. […] Mitoxantrone was administered intravenously once at the beginning of the treatments at a dose of 2 mg/kg (FIG. 4A) or once a week for four weeks at a reduced dose of 0.8 mg/kg (FIG. 4B). All treatments were stopped at day 50 (FIG. 4A) or 48 (FIG. 4B), respectively. […] Mitoxantrone was administered intravenously once at the beginning of the treatments at a dose of 2 mg/kg (FIG. 5A) or once a week for four weeks at a reduced dose of 0.8 mg/kg (FIG. 5B). All treatments were stopped at day 42 (FIG. 5A) or 38 (FIG. 5B), respectively. […] A2058 is a metastatic melanoma cell line. […] All treatments were stopped at day 24. […] Taxol was administered intravenously once a week at a dose of 10 mg/kg for three (FIG. 7A) or four weeks (FIG. 7C). Doxorubicin was administered intravenously once a week at a dose of 5 mg/kg for first three weeks (FIG. 7A) or for two weeks (FIG. 7C). All treatments were stopped at day 33 (FIG. 7A) or at day 26 (FIG. 7C), respectively. […] In FIG. 7C, antitumour activities were estimated by the inhibition of tumour volume, which was measured with calipers. Each point represents mean tumour volume calculated from 10 animals per experimental group. […] Taxol was administered intravenously once a week for first three weeks and intraperitoneally once a week for next two weeks at a dose of 10 mg/kg. Cisplatin was administered intravenously once a week for first three weeks and intraperitoneally once a week for next two weeks at a dose of 4 mg/kg. All treatments were stopped at day 40. Antitumour activities were estimated by the inhibition of tumour volume, which was measured with caliper. Each point represents mean tumour volume calculated from 9 animals per experimental group.

[2] = test system: Caki-1 human renal cancer cells; experiment: Caki-1 renal tumour xenograft, combination with 5-FU or vinblastin (1.3); format: in vivo, human cells in mice; conditions: Caki (renal), CD-1 mouse as printed; SEQ ID NO:1 10 mg/kg i.v. every other day; 5-FU 13 mg/kg/day i.p.; vinblastin 0.6 mg/kg/week i.p.
Text: All treatments were stopped at day 22. […] All treatments were stopped at day 32. […] All treatments were stopped at day 36.

[3] = test system: A498 human kidney cancer cells; experiment: A498 kidney tumour xenograft in SCID mice, controls and chemotherapeutics (Example 7); format: in vivo, human cells in mice; conditions: oligonucleotides 10 mg/kg/2 days i.v., 5-FU 13 mg/kg/day×5, vinblastine 1 mg/kg/week, gemcitabine 100 mg/kg/week
Text: CD-1 athymic female nude mice, BALB/c nu/nu nude mice, SCID, and SCID beige mice were purchased from Charles River Laboratories (Montreal, Canada) and experiments were typically initiated when the mice were 6-7 weeks old. […] Each experimental group typically contained 10 mice. After the size of tumour reached a mean tumour volume of 50-100 mm^3, treatment was initiated. […] Anti-tumour activity was estimated by the measurement of tumour volume with a calliper at two-three day intervals. Tumour volume was calculated by a formula L×W×H/2, where L indicates length, W indicates width and H indicates height. Within 24 hours after the last treatment, the animals were sacrificed and tumour and body weights were measured. Results of statistical analyses of the data are presented as P values in the figure legends.
Three additional treatment groups received: 5-FU (13 mg/kg/day×5), vinblastine (1 mg/kg/week) and gemcitabine (100 mg/kg/week). […] Caliper measurements at 1-week intervals were used to calculate tumour volumes. Each point in FIG. 28C represents mean tumour volume calculated from 10 animals per experimental group (with the exception of SEQ ID NO: 1 which was 8 animals). […] After 54 days the mice were sacrificed and the A498 tumours weighed. Each bar represents the mean tumour weight and standard error calculated for each treatment group.

[4] = test system: SK-OV-3 human ovary adenocarcinoma cells; experiment: SK-OV-3 ovary tumour xenograft in CD-1 nude mice, combination with taxol or cisplatin (1.8); format: in vivo, human cells in mice; conditions: SK-OV-3 (ovary), CD-1; SEQ ID NO:1 10 mg/kg i.v. every other day 17 times; Taxol 10 mg/kg weekly; Cisplatin 4 mg/kg weekly
Method: as §1

[5] = test system: MDA-CDDP-S4 human in vivo-selected Cisplatin-resistant breast adenocarcinoma cells; experiment: MDA-CDDP-S4 Cisplatin-resistant breast adenocarcinoma, fat pad, SCID mice (2.3); set-up: species or system human cells in mice; conditions: MDA-CDDP-S4 (breast), Cisplatin resistant, SCID; SEQ ID NO:1 10 mg/kg i.v. every other day 9 times; Taxol 10 mg/kg, Cisplatin 4 mg/kg i.v. weekly x3
Method: (§2) BxPC-3 is a gemcitabine resistant call line. […] Gemcitabine was administered intravenously every three days at a dose of 100 mg/kg. Antitumour activities were estimated by the inhibition of tumour volume, which was measured with caliper. Each point represents mean tumour volume calculated from 10 animals per experimental group. […] Hela S3 is a hydroxyurea resistant cell line. […] Hydroxyurea was administered intraperitoneally every day at a dose of 250 mg/kg for 10 days. Cisplatin was administered intravenously once a week for three weeks at a dose of 4 mg/kg. Antitumour activities were estimated by the inhibition of tumour volume, which was measured with caliper. Each point represents mean tumour volume calculated from 10 animals per experimental group. […] Cisplatin was administered intravenously once a week for three weeks at a dose of 4 mg/kg. Taxol was administered intravenously once a week for three weeks at a dose of 10 mg/kg. Antitumour activities were estimated by the inhibition of tumour volume, which was measured with caliper. Each point represents mean tumour volume calculated from 10 animals per experimental group. […] Taxol was administered i.p. once a week at a dose of 10 mg/kg. Antitumour activities were estimated by the inhibition of tumour volume (FIG. 12A), which was measured with calipers. Each point represents mean tumour volume calculated from 10 animals per experimental group. Animals were sacrificed and tumour weights taken at the end of the study (FIG. 12C). […] Cisplatin was administered intravenously once a week for four weeks at a dose of 4 mg/kg. Taxol was administered intravenously once a week for four weeks at a dose of 20 mg/kg. Antitumour activities were estimated by the inhibition of tumour volume, which was measured with caliper. Each point represents mean tumour volume calculated from 9-10 animals per experimental group. […] Cisplatin was administered intravenously once a week for four weeks at a dose of 4 mg/kg. Antitumour activities were estimated by the inhibition of tumour volume, which was measured with caliper. Each point represents mean tumour volume calculated from 10 animals per experimental group. At the end of the study the animals were sacrificed and tumours weighed. […] Taxol was administered i.p. once a week at a dose of 10 mg/kg. Anti-tumour activity was estimated by the inhibition of tumour volume, which was measured with caliper. Each point represents mean tumour volume calculated from 10 animals per experimental group. In addition animals were sacrificed and tumour weights taken at the end of the study. […] CPT-11 was administered i.p. for 5 days at a dose of 20 mg/kg/day. Antitumour activities were estimated by the inhibition of tumour volume, which was measured with caliper. Each point represents mean tumour volume calculated from 10 animals per experimental group. Tumour weights were measured after animals were sacrificed at the end of the treatment. These cells are not resistant to CPT-11 which was used as a positive control.

[6] = test system: MDA-CDDP-S4 human in vivo-selected Cisplatin-resistant breast adenocarcinoma cells; experiment: MDA-CDDP-S4 Cisplatin-resistant breast adenocarcinoma, fat pad, CB-17 SCID mice, combination with Taxol (2.4); set-up: species or system human cells in mice; conditions: MDA-CDDP-S4 (breast), Cisplatin resistant, SCID, SEQ ID NO:1 10 mg/kg i.v. every other day, Taxol 10 mg/kg i.p. weekly
Method: as §2

[7] = test system: MDA-MB435-To.1 human Taxol-resistant breast adenocarcinoma cells; experiment: MDA-MB435-To.1 Taxol-resistant breast adenocarcinoma, fat pad, SCID mice (2.5); format: in vivo, human cells in mice
Method: as §2

[8] = test system: Human taxol-resistant promyelocytic leukaemia cells (HL-60); experiment: HL-60 taxol-resistant promyelocytic leukaemia tumour in SCID mice (2.7); format: in vivo, human cells in mice; conditions: SEQ ID NO:1 10 mg/kg i.v. every other day
Method: BxPC-3 is a gemcitabine resistant call line. […] Gemcitabine was administered intravenously every three days at a dose of 100 mg/kg. Antitumour activities were estimated by the inhibition of tumour volume, which was measured with caliper. Each point represents mean tumour volume calculated from 10 animals per experimental group. […] Hela S3 is a hydroxyurea resistant cell line. […] Hydroxyurea was administered intraperitoneally every day at a dose of 250 mg/kg for 10 days. Cisplatin was administered intravenously once a week for three weeks at a dose of 4 mg/kg. Antitumour activities were estimated by the inhibition of tumour volume, which was measured with caliper. Each point represents mean tumour volume calculated from 10 animals per experimental group. […] Cisplatin was administered intravenously once a week for three weeks at a dose of 4 mg/kg. Taxol was administered intravenously once a week for three weeks at a dose of 10 mg/kg. Antitumour activities were estimated by the inhibition of tumour volume, which was measured with caliper. Each point represents mean tumour volume calculated from 10 animals per experimental group. […] Taxol was administered i.p. once a week at a dose of 10 mg/kg. Antitumour activities were estimated by the inhibition of tumour volume (FIG. 12A), which was measured with calipers. Each point represents mean tumour volume calculated from 10 animals per experimental group. Animals were sacrificed and tumour weights taken at the end of the study (FIG. 12C). […] Cisplatin was administered intravenously once a week for four weeks at a dose of 4 mg/kg. Taxol was administered intravenously once a week for four weeks at a dose of 20 mg/kg. Antitumour activities were estimated by the inhibition of tumour volume, which was measured with caliper. Each point represents mean tumour volume calculated from 9-10 animals per experimental group. […] Cisplatin was administered intravenously once a week for four weeks at a dose of 4 mg/kg. Antitumour activities were estimated by the inhibition of tumour volume, which was measured with caliper. Each point represents mean tumour volume calculated from 10 animals per experimental group. At the end of the study the animals were sacrificed and tumours weighed. […] Taxol was administered i.p. once a week at a dose of 10 mg/kg. Anti-tumour activity was estimated by the inhibition of tumour volume, which was measured with caliper. Each point represents mean tumour volume calculated from 10 animals per experimental group. […] Antitumour activities were estimated by the inhibition of tumour volume, which was measured with caliper. Each point represents mean tumour volume calculated from 10 animals per experimental group. Tumour weights were measured after animals were sacrificed at the end of the treatment. […]

SMILES	Tumour weight as % of saline control [1]	Tumour weight as % of saline control [2]	Effect on tumour growth (volume and weight) [3]	tumour volume data as percentage of saline control [4]	Tumour weight as % of saline control [5]	Tumour weight as % of saline control ([6]; first of two printed values (study and repeat))	Tumour weight as % of saline control ([6]; second of two printed values (study and repeat))	Tumour weight as % of saline control ([7]; MDA-MB435-To.1 (breast), Taxol resistant, SCID, SEQ ID NO:1 10 mg/kg i.v. every other day 15 times, Taxol 20 mg/kg, Cisplatin 4 mg/kg i.v. weekly x4)	Antitumour effect (FIG. 13) ([7]; MDA-MB435-To.1 Taxol-resistant, SCID mice, SEQ ID NO:1 10 mg/kg i.v. every other day, Cisplatin 4 mg/kg, Taxol 20 mg/kg i.v. weekly)	Tumour weight as % of saline control ([8]; HL-60 (leukemia), Taxol resistant, SCID, Taxol 10 mg/kg i.p. weekly)	Antitumour effect (FIG. 15) ([8]; HL-60 taxol-resistant, SCID mice, taxol 10 mg/kg i.p. weekly)
COc1cccc2c1C(=O)c1c(O)c3c(c(O)c1C2=O)C[C@@](O)(C(=O)CO)C[C@@H]3O[C@H]1C[C@H](N)[C@H](O)[C@H](C)O1 [Doxorubicin]	41%										
CC[C@]1(O)C[C@@H]2CN(CCc3c([nH]c4ccccc34)[C@@](C(=O)OC)(c3cc4c(cc3OC)N(C)[C@H]3[C@@](O)(C(=O)OC)[C@H](OC(C)=O)[C@]5(CC)C=CCN6CC[C@]43[C@@H]65)C2)C1 [Vinblastine, vinblastine]		26%	ineffective in stabilization of the tumours; also recorded: at best, a delay in the rate of tumour growth								
CC(=O)O[C@H]1C(=O)[C@@]2(C)[C@H]([C@H](OC(=O)c3ccccc3)[C@]3(O)C[C@H](OC(=O)[C@H](O)[C@@H](NC(=O)c4ccccc4)c4ccccc4)C(C)=C1C3(C)C)[C@]1(OC(C)=O)CO[C@@H]1C[C@@H]2O [Taxol, Paclitaxel, reference compound]	58%			49%	32%	26%	61%	109%	ineffective against Taxol-resistant tumour	119%	no effect on tumour growth or weight
